Data set [1] in a line: Dissolution of methyl 4-hydroxyphenylacetate in 15% ethanol solution. Format: physicochemical. The following applies: 1.82787 g in 50 mL of 15% ethanol solution. How it is done:
The methyl 4-hydroxyphenylacetate was purchased on the market. 1.82787 g of methyl 4-hydroxyphenylacetate was weighed, and added with 50 mL of a 15% absolute ethanol solution for dissolution.

For the next data set, the system named is Eupatorium adenophorum. Put plainly: Spraying herbicide aqueous solution on Eupatorium adenophorum plants (contact killing). Format: in vivo. How it is done: (1) 25 mL of the methyl 4-hydroxyphenylacetate herbicide aqueous solution prepared in Example 1 was taken and sprayed evenly on the surface of Eupatorium adenophorum plants.
When not sprayed, the Eupatorium adenophorum plant had one pair of top leaves, one head inflorescence, one pair of tender leaves under the top leaves, and three pairs of mature leaves. The plant was healthy and vigorous, with a height of 40-50 cm. […] The uppermost one pair of mature leaves among the three pairs of mature leaves withered in a large area. The lower two pairs of mature leaves began to wither from the edge inwards, and the axillary buds also died. These deaths were irreversible.
(2) 25 mL of the methyl 4-hydroxyphenylacetate herbicide aqueous solution prepared in Example 3 was taken and sprayed evenly on the surface of Eupatorium adenophorum plants.
When not sprayed, the Eupatorium adenophorum plant had one pair of top leaves, one head inflorescence, one pair of tender leaves under the inflorescence, and four pairs of mature leaves. The plant was healthy and vigorous, with a height of 40-50 cm.
(5) 25 mL of the methyl 4-hydroxyphenylacetate herbicide aqueous solutions prepared in Comparative Examples 1 to 2 were taken and sprayed evenly on the surface of Eupatorium adenophorum plants.

Structures are written as SMILES.

On to `COC(=O)Cc1ccc(O)cc1` [methyl 4-hydroxyphenylacetate, Methyl 4-hydroxyphenylacetate], for which the “solubility in 15% absolute ethanol solution” value in data set [1] is given as “could not be sufficiently dissolved”. The “effect on Eupatorium adenophorum at use concentration greater than 150 mmol/L” value in the data set with Eupatorium adenophorum (sprayed once) is on record as “contact killing effect”. Moreover, the “time after spraying until old leaves / plant are basically withered” value with Eupatorium adenophorum (use concentration greater than 150 mmol/L) was in the range of 4 to 5 days.

These data come from US20230345936A1, “NOVEL ENVIRONMENT-FRIENDLY HERBICIDE” (KUNMING INSTITUTE OF BOTANY, CHINESE ACADEMY OF SCIENCES, priority 2022, published 2023).
